Compound	logP
Cc1no[n+]([O-])c1Sc1ccccc1	2.74
Cc1c(Sc2ccccc2)no[n+]1[O-]	2.63
Nc1nonc1N	-0.49
Cc1c(Cc2ccccc2)no[n+]1[O-]	2.08
[O-][n+]1onc(-c2ccccc2)c1CO	1.77
Cc1c(-c2ccccc2)no[n+]1[O-]	2.17
Cc1c(S(=O)(=O)c2ccccc2)no[n+]1[O-]	2.03
c1ccc2nsnc2c1	1.98
c1cnon1	0.16
[O-][n+]1onc(Cl)c1-c1ccccc1	2.82
Cc1n[se]nc1C	0.89
O=[N+]([O-])c1nonc1-c1ccccc1	2.63
[O-][n+]1onc(-c2ccccc2)c1Cl	2.7
[O-][n+]1onc(CO)c1-c1ccccc1	1.64
O=Cc1c(-c2ccccc2)no[n+]1[O-]	2.92
Cc1c(N)no[n+]1[O-]	-0.17

Compound	logP
Cc1no[n+]([O-])c1S(=O)c1ccccc1 (stereo not given)	1.75
Cc1nonc1[N+](=O)[O-]	0.97
Cc1no[n+]([O-])c1Cc1ccccc1	2.22
[O-][n+]1onc(Cc2ccccc2)c1Cc1ccccc1	3.65
Nc1no[n+]([O-])c1-c1ccccc1	1.47
O=Cc1no[n+]([O-])c1-c1ccccc1	2.61
[O-][n+]1onc(-c2ccccc2)c1-c1ccccc1	3.64
c1ccc2n[se]nc2c1	1.64
Cc1c(Cl)no[n+]1[O-]	1.02
Cc1no[n+]([O-])c1-c1ccccc1	2.16
Nc1c(-c2ccccc2)no[n+]1[O-]	1.42
Cc1c(S(=O)c2ccccc2)no[n+]1[O-] (stereo not given)	1.5
[O-][n+]1onc2ccccc21	1.43
c1ccc(-c2nonc2-c2ccccc2)cc1	3.83
Cc1no[n+]([O-])c1S(=O)(=O)c1ccccc1	2.26

Further lines, results first:

logP	Compound
2.36	Cc1nonc1S(=O)(=O)c1ccccc1
0.9	Cc1no[n+]([O-])c1Cl
3.2	Clc1nonc1-c1ccccc1
0.36	Cc1no[n+]([O-])c1C(N)=O
0.09	Cc1nonc1N
0.56	CNC(=O)c1nonc1C
0.17	CC(=O)Nc1nonc1C
1.71	CCCc1nonc1C
0.8	CC(=O)c1no[n+]([O-])c1C
1.29	Cc1no[n+]([O-])c1C=O
0.31	Cc1nonc1C(N)=O
-0.23	CC(=O)Nc1nonc1N
0.98	CC(=O)c1c(C)no[n+]1[O-]
0.23	Cc1no[n+]([O-])c1C
1.41	Nc1nonc1NC(=O)c1ccccc1
2.21	Cc1nonc1-c1ccccc1[N+](=O)[O-]
0.56	COC(=O)c1no[n+]([O-])c1C

logP	Compound
0.65	CCS(=O)(=O)c1no[n+]([O-])c1C
1.02	Cc1c(C=O)no[n+]1[O-]
1.76	Cc1nonc1S(=O)c1ccccc1 (stereo not given)
0.42	COC(=O)Nc1nonc1C
0.94	COC(=O)c1nonc1C
1.69	c1ccc2nonc2c1
0.03	Cc1c(C(N)=O)no[n+]1[O-]
1.28	Cc1nsnc1C
2.59	Cc1nonc1-c1ccccc1
0.69	COC(=O)c1c(C)no[n+]1[O-]
0.71	Cc1nonc1C
1.81	Nc1nonc1-c1ccccc1
0.3	CNC(=O)Nc1nonc1C
1.92	OCc1nonc1-c1ccccc1
-0.32	Cc1no[n+]([O-])c1N
2.92	Cc1nonc1Sc1ccccc1
1.18	CCc1nonc1C
